# Data reported in patent US20240361317A1, “PROBES BASED ON VOLATILE ORGANIC COMPOUNDS AND USES THEREOF FOR THE DIAGNOSIS AND PROGNOSIS OF PATHOLOGICAL CONDITIONS” (Centre National de la Recherche Scientifique, priority 2021, published 2024).
# Columns and labels:
# [1] = tested on: α-Mannosidase; experiment: Plasma protocol: labeled ethanol released in headspace of plasma after adding probe; type: biochemical, human; conditions: Ethanol-D5; Cocktail 3; 10^−3/10^−4 mol·L^−1; Splitless
# Excerpt: (§1) In advance, the enzymatic activities present in the blood samples of 7 healthy volunteers aged 20 to 30 years were studied by means of two cocktails of distinct probes (Table 6). This study had the objective (1) to set the final composition of the cocktails, (2) to define the concentrations of the probes to add to blood samples to obtain a significant isotope response knowing that this response would not be linked to spontaneous hydrolysis of the corresponding probes, (3) to define the optimal kinetic point, (4) to have an idea of the range of response of the isotopes of ethanol in healthy plasma samples.
# (§2) Furthermore, two samples per patient were carried out in order to study the potential impact on the enzymatic activities here targeted of holding the samples at room temperature for several hours (an action which can take place in hospital conditions). Thus, the first sample was transformed into plasma and then frozen in the hour following the blood sampling. The second was reserved for 5 h at […], before treatment and then freezing. The samples were all stored at −20° C. until analysis.
# (§3) According to the plasma protocol described above, the probes were used to detect the six enzymatic activities in these samples. […] The VOCs trapped on the SPME fiber are then analyzed by GC-TQMS according to the parameters defined in Tables 4 and 5. […]
# [2] = tested on: α-Glucosidase; experiment: as above; type: biochemical, human; conditions: Ethanol-D4; Cocktail 1; 10^−3/10^−4 mol·L^−1; Splitless
# Excerpt: as §1, §2, §3
# [3] = molecular target: T1, β-glucuronidase of E. coli (Escherichia coli, UniProt P05804); experiment: Limit of detection of model β-glucuronidase in plasma matrix with the VOC probe (SPME, GC-TQMS of ethanol-D5); type: biochemical
# T1 construct: purchased Sigma Aldrich
# T1 sequence (P05804 whole entry): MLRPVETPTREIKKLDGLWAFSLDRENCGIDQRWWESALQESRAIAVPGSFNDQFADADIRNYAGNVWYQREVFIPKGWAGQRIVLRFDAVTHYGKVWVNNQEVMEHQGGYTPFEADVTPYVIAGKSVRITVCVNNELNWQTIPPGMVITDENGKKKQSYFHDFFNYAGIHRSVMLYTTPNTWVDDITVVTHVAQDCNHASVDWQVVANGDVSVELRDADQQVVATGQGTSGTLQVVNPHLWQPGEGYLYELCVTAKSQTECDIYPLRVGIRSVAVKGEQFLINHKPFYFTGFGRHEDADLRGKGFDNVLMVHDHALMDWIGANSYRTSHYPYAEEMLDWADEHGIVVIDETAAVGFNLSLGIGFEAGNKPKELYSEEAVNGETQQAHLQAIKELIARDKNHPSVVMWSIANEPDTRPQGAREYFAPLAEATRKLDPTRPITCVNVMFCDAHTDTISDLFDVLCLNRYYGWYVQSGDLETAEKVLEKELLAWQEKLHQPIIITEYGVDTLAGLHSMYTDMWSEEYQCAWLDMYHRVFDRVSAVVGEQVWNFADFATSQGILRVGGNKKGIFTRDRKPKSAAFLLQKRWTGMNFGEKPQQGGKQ
# Procedure: (§4) The plasma (approximately […]) is extracted and stored at −20° C. until analysis. An aliquot of 25 μL of plasma is sampled and inserted into a […] with an insert. This biological sample is added to 50 μL of acetate buffer solution (pH 5), protease inhibitor (1×) and 25 μL probe D5-ethyl-β-D-glucuronide at […]. After hermetic closure and agitation to the vortex of the vial, an SPME (SPME in semi-polar phase of the Car/PDMS, 1 cm long and 75 μm thick type with a 24 ga needle; Supelco) of the gas phase above the sample of a duration of 30 mi is carried out after 2 h, 4 h and 7 h of reaction. Each kinetic point requires a vial reaction, and is carried out in duplicate. The VOCs trapped on the SPME fiber are then analyzed by G-TQMS. GC-TMS detection of the ethanol isotopes (thus including ethanol-D5) is carried out with gas chromatography coupled to a triple quadrupole equipped with an E1 source (TSQ 9000, Thermo Fisher Scientific). The system is controlled by the software TSQ 9000 and the results are analyzed with the Xcalibur software (Thermo Fisher Scientific).
# The limit of detection (LOD) of a model enzyme (β-glucuronidase of E. coli; liquid solution 50% glycerol, 140 U·mL^−1; Sigma Aldrich) in plasma matrix in the presence of probe D5-ethyl-β-D-glucuronide was then determined. For this, a plasma sample for which the activity of endogenous β-glucuronidase was not detectable, was added to enzyme concentrations ranging from […] to 1.10^−13 mol·L ^−1. The amount of ethanol-D5 released was monitored before adding probe and then after 2.5, 4.5 and 7.5 h of reaction at 30° C.
# [4] = Spontaneous hydrolysis of probes in buffer solution / during the reaction; type: physicochemical; conditions: acetate buffer, maximum concentration
# Procedure: According to the plasma protocol described above, the probes were used to detect the six enzymatic activities in these samples. To summarize, an aliquot of 25 μL of plasma will be sampled and inserted into a 2 mL vial with an insert. This biological sample was added from 61.4 μL buffer solution (pH 5), 3.6 μL of protease inhibitor (1×) and 10 μL of one or the other of the cocktails. After hermetic closure and agitation to the vortex of the vial, an SPME (SPME in semi-polar phase of the Car/PDMS, 1 cm long and 75 μm thick type with a 24 ga needle, Supelco) of the gas phase above the sample of a duration of 30 min will be carried out after 2 h, 4 h and 7 h of reaction. Each kinetic point requires a vial reaction, and was carried out in duplicate. The VOCs trapped on the SPME fiber are then analyzed by GC-TQMS according to the parameters defined in Tables 4 and 5. Blank cocktails (cocktails in acetate buffer with no plasma) and plasma blanks (plasmas with an acetate buffer without cocktail) were carried out every day of analysis.
# The responses of the probes in the plasma samples were compared to their responses in so-called “blank” samples and corresponding to the probes added to the acetate buffer alone.
# [5] = molecular target: T2, β-glucuronidase (Homo sapiens, UniProt P08236); experiment: Plasma protocol: labeled ethanol released in headspace of plasma after adding probe; type: biochemical
# T2 construct: from tissue; host or cells: human blood plasma
# T2 sequence (P08236 23-651): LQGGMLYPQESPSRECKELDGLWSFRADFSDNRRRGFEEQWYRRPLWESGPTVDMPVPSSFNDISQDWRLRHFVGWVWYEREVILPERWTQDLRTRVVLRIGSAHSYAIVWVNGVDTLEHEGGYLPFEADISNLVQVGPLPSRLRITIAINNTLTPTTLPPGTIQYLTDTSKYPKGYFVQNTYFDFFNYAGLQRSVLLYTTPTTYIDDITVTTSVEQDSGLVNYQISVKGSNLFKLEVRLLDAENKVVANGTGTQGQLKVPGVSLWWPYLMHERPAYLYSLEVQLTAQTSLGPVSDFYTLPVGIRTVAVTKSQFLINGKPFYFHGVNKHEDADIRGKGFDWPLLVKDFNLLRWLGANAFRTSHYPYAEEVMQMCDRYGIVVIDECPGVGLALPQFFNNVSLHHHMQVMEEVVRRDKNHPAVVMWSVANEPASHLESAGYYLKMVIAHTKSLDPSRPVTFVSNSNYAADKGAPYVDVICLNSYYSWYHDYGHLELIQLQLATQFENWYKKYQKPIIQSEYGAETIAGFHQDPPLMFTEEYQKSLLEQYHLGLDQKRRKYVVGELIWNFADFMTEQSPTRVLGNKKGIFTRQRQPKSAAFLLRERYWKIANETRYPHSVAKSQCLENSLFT
# Procedure: as §4
# Blood samples were taken by the caregiver associated with the oncological service, then collected and pretreated with the CIC. This study included samples of plasma taken from 11 patients suffering from breast cancer and 11 patients suffering from lung cancer.
# These patients were diagnosed, but had at the time of sampling not yet received treatment. Their response was compared to that obtained from the plasma of 4 healthy patients. The results were compared to an experimental blank wherein the probe was added, but the enzyme was not present (FIG. 3). […]
# After adding the 4 probes (according to the above protocol), the quantity of the 4 isotopes of the ethanol released above the samples of the patients was measured over time. […]
# as §3
# [6] = tested on: N-acetyl glucosaminidase; experiment: Specificity study: hydrolysis of probes by the enzyme; type: biochemical
# Procedure: (§5) The detection performances of this compound in the presence of ethanol and ethanol-D5 were then verified. […] The detection ranges of ethanol-D5 and ethanol-^13C-D5 were then carried out under SPME sampling conditions developed for biological samples (30 min of sampling at 30° C.). The two isotopes were present in mixtures in solution. The limits of detection obtained are respectively […]. The SPME-GC-TQMS method therefore allows a sharp differentiation of the two isotopes according to their mass fragmentation. An experimental study was then carried out in order to evaluate the affinity of the D5-ethyl-β-D-glucuronide and ^13C-D5-ethyl-N-acetylglucosamine for their respective enzyme (β-glucuronidase and N-acetyl glucosaminidase). For this, the efficacy of hydrolysis of each of these enzymes was studied in the presence of their respective probe (FIG. 6) then in the presence of the substrate probe of its partner (FIG. 7). […] In the presence of the two substrates, each enzyme gives a signal only for the probe specific to it (FIG. 8).
# [7] = molecular target: β-glucuronidase (Escherichia coli, UniProt P05804); experiment: as above; type: biochemical
# Chain of β-glucuronidase (Escherichia coli, UniProt P05804) (P05804 whole entry): as the sequence (P05804 whole entry) above
# Procedure: as §5
# [8] = tested on: β-glucuronidase present in the extracellular matrix; experiment: Ethanol-D5 in headspace of mouse tumor (MDA-MB-231, KB) and healthy liver biopsies after adding probe; conditions: probe 10^−9, 10^−8 and 10^−6 M
# Procedure: Thus, tests during which the tumoral and healthy biopsies were placed in the presence of decreasing concentrations of D5-ethyl-β-D-glucuronide were carried out. The probe concentration retained corresponded to the concentration for which no response of healthy tissues was obtained, whereas an enzymatic response was observed on cancer tissues.
# In the context of this work, two tumor biopsies, taken on mouse models, were studied (MDA-MB-231: human breast cancer cells, KB: human nasopharynx cancer cells). Two mouse liver biopsies were used as healthy tissues. Probe solutions at 10^−7, 10^−6, 10^−4 and 10^−2 M were prepared in a PBS buffer (137 mM NaCl, 2.7 mM KCl, 10 mM Na2HPO4, 1.8 mM KH2PO4, pH 7.4).
# The biopsies were rinsed with 500 μL of PBS and then placed in a vial with an insert of 2 mL. A volume of 297 μL of PBS was added to the vial. The volatile molecules present in the headspace of the vial were trapped for 30 min in order to ensure that no ethanol-D5 was detected. Then 3 μL of probe at […] were added (final probe concentration in the vial of […]). After hermetic closure and vortex agitation, the volatile compounds were preconcentrated on SPME fiber (Car/PDMS, Supelco) for 30 min and then analyzed by GC-TQMS (analysis conditions described in Table 2).
smiles,measurement,setting,value
CCC[C@H]1C[C@H](CC)[C@@H](C)[C@H](C)[C@@H]1C [drawing 26],Plasma response range (u.a.),[1],1000-50000 u.a.
CCC[C@H]1C[C@H](CC)[C@@H](C)[C@H](C)[C@@H]1C [drawing 22],Plasma response range (u.a.),[2],0-3000 u.a.
[2H]C([2H])([2H])C([2H])([2H])O[C@@H]1O[C@H](C(=O)O)[C@@H](O)[C@H](O)[C@H]1O [D5-ethyl-β-D-glucuronide],"LOD lower than threshold value of the reference detection method (para-nitrophenol glucuronide, UV)",[3],100 times
same,minimum quantity of detectable enzyme,[3]; plasma matrix,1.10^−18 mol
same,concentration at which β-glucuronidase can be detected in plasma,"[3]; plasma, first results",less than 5.10^−13 M
same,spontaneous hydrolysis when placing in buffer solution,[4],significant spontaneous hydrolysis
same,amount of ethanol-D5 released above plasma of patients with cancer compared to blanks and healthy patients,"[5]; 11 breast cancer, 11 lung cancer patients, 4 healthy patients",significantly higher
same,discernment between healthy patients and cancer patients,"[5]; cocktail of 4 probes, plasma of breast and lung cancer patients vs 4 healthy",allow clear discernment between healthy patients and cancer patients
same,hydrolysis of probe by N-acetyl glucosaminidase (labeled ethanol signal),[6],does not hydrolyze
same,hydrolysis of probe by β-glucuronidase (labeled ethanol signal),[7],has hydrolyzed its own probe
same,ethanol-D5 release for cancer tissues,[8]; MDA-MB-231 and KB tumor biopsies,release of this isotope was detected
same,ethanol-D5 response on healthy tissues,[8]; mouse liver biopsies,no response
